Assay results from ChEMBL document CHEMBL4152340, “Targeting the MDM2-p53 protein-protein interaction with prenylchalcones: Synthesis of a small library and evaluation of potential antitumor activity” (Eur J Med Chem, 2018).
Values belong to the compound of their own block, whether it stands above or below them. Activity calls are given as the source filed them. No cut-off for these calls is given here.

What was measured:
HCT-116 [1] = assay: Antiproliferative activity against human HCT116 cells after 48 hrs by SRB assay; format: functional, cell-based; details: HCT-116, 48 h
Saccharomyces cerevisiae [2] = assay: Growth inhibition of Saccharomyces cerevisiae expressing MDM2 at 10 uM after 42 hrs by Yeast-based assay; format: organism-based; details: in vivo
Saccharomyces cerevisiae [3] = assay: Growth inhibition of Saccharomyces cerevisiae expressing p53 at 10 uM after 42 hrs by Yeast-based assay; format: organism-based; details: in vivo
Saccharomyces cerevisiae [4] = assay: Growth inhibition of Saccharomyces cerevisiae expressing empty vector at 10 uM after 42 hrs by Yeast-based assay; format: organism-based; details: in vivo
Saccharomyces cerevisiae [5] = assay: Growth inhibition of Saccharomyces cerevisiae expressing MDM2 at 1 to 50 uM after 42 hrs by Yeast-based assay; format: organism-based; details: in vivo
[6] = molecular target: T1, Tumour suppressor p53/oncoprotein Mdm2 (Homo sapiens) (UniProt P04637+Q00987); assay: Inhibition of human MDM2-p53 interaction in Saccharomyces cerevisiae assessed as p53 induced cell growth arrest at 1 to 50 uM after 42 hrs by Yeast-based assay; format: protein assay
T1 sequence (P04637 whole entry, looked up): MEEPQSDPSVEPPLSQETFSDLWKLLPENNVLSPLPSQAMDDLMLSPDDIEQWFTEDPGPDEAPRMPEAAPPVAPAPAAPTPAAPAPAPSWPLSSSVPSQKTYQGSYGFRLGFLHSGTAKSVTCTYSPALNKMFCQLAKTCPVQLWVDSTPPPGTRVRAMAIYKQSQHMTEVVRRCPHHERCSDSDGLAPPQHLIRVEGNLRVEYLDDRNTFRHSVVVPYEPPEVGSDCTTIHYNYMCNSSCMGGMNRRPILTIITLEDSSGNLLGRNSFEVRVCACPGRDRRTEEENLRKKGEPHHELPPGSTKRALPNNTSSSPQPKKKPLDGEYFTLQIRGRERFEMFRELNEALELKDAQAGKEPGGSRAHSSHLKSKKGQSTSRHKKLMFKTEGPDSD
T1 sequence (Q00987 whole entry, looked up): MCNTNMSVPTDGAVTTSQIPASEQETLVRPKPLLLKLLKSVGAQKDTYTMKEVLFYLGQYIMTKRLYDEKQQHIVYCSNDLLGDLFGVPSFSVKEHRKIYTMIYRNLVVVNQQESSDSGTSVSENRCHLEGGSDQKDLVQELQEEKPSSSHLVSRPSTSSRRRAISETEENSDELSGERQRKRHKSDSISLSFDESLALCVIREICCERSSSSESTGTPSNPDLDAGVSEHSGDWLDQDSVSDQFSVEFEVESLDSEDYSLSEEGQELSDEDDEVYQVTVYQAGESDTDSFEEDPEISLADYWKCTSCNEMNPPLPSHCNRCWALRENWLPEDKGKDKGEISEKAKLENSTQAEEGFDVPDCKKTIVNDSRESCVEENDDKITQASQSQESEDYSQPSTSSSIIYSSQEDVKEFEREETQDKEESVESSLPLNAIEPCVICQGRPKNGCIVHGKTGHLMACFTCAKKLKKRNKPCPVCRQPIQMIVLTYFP

Saccharomyces cerevisiae [7] = assay: Growth inhibition of Saccharomyces cerevisiae expressing p53 at 1 to 50 uM after 42 hrs by Yeast-based assay; format: organism-based; details: in vivo
Saccharomyces cerevisiae [8] = assay: Growth inhibition of Saccharomyces cerevisiae expressing empty vector at 1 to 50 uM after 42 hrs by Yeast-based assay; format: organism-based; details: in vivo
HepG2 = assay: Antiproliferative activity against human HepG2 cells after 48 hrs by SRB assay; format: functional, cell-based; details: HepG2, 48 h
MCF7 = assay: Antiproliferative activity against human MCF7 cells after 48 hrs by SRB assay; format: functional, cell-based; details: MCF7, 48 h
[9] = molecular target: T1, Tumour suppressor p53/oncoprotein Mdm2 (Homo sapiens); assay: Inhibition of MDM2-p53 interaction in human HCT116 cells assessed as p53 activation by measuring increase in PUMA level at 4.2 uM after 48 hrs by Western blot analysis; format: cell-based
[10] = Selectivity ratio of IC50 for human HFF to IC50 for human MCF7 cells; format: toxicity; details: HFF cells versus MCF7 cells, read-out: Ratio IC50
HCT-116 [11] = assay: Cell cycle arrest in human HCT116 cells assessed as accumulation at G2/M phase at 4.2 uM after 48 hrs by propidium iodide staining-based flow cytometric analysis; format: functional
[12] = molecular target: T1, Tumour suppressor p53/oncoprotein Mdm2 (Homo sapiens); assay: Inhibition of MDM2-p53 interaction in human HCT116 cells assessed as p53 activation by measuring increase in MDM2 expression at 4.2 uM after 48 hrs by Western blot analysis; format: cell-based
[13] = molecular target: T1, Tumour suppressor p53/oncoprotein Mdm2 (Homo sapiens); assay: Inhibition of MDM2-p53 interaction in human HCT116 cells assessed as p53 activation by measuring increase in cleaved-PARP level at 4.2 uM after 48 hrs by Western blot analysis; format: cell-based
A-375 = assay: Antiproliferative activity against human A375 cells after 48 hrs by SRB assay; format: functional, cell-based; details: A-375, 48 h
[14] = Selectivity ratio of IC50 for human HFF to IC50 for human A375 cells; format: toxicity; details: HFF cells versus A375 cells, read-out: Ratio IC50
HCT-116 [15] = assay: Induction of mitochondrial ROS generation in human HCT116 cells at 4.2 uM after 48 hrs by MitoSOX dye-based flow cytometric analysis; format: functional, cell-based
[16] = Selectivity ratio of IC50 for human HFF to IC50 for human HepG2 cells; format: toxicity; details: HFF cells versus HepG2 cells, read-out: Ratio IC50
[17] = molecular target: T1, Tumour suppressor p53/oncoprotein Mdm2 (Homo sapiens); assay: Inhibition of MDM2-p53 interaction in human HCT116 cells assessed as p53 activation by measuring increase in GADD45 level at 4.2 uM after 48 hrs by Western blot analysis; format: cell-based
HCT-116 [18] = assay: Anticlonogenic activity against human HCT116 cells after 11 days by crystal violet staining based assay; format: functional, cell-based; details: HCT-116, 264 h
HCT-116 [19] = assay: Induction of apoptosis in human HCT116 cells at 4.2 uM after 48 hrs by annexin V/FITC-propidium iodide staining-based flow cytometric method; format: functional, cell-based
[20] = molecular target: T1, Tumour suppressor p53/oncoprotein Mdm2 (Homo sapiens); assay: Inhibition of MDM2-p53 interaction in human HCT116 cells assessed as p53 activation by measuring decrease in Bcl-2 level at 4.2 uM after 48 hrs by Western blot analysis; format: cell-based
[21] = molecular target: T1, Tumour suppressor p53/oncoprotein Mdm2 (Homo sapiens); assay: Inhibition of MDM2-p53 interaction in human HCT116 cells assessed as p53 activation by measuring increase in p21 level at 4.2 uM after 48 hrs by Western blot analysis; format: cell-based
[22] = Selectivity ratio of IC50 for human HFF to IC50 for human HCT116 cells; format: toxicity; details: HFF cells versus HCT116 cells, read-out: Ratio IC50

Compound: COc1ccc(C2=N[C@@H](c3ccc(Cl)cc3)[C@@H](c3ccc(Cl)cc3)N2C(=O)N2CCNC(=O)C2)c(OC(C)C)c1 [NUTLIN-3]
growth inhibition (GI) (Saccharomyces cerevisiae [2]): Non-Toxic
growth inhibition (GI) (Saccharomyces cerevisiae [3]): Non-Toxic
growth inhibition (GI) (Saccharomyces cerevisiae [4]): Non-Toxic

Compound: COc1cccc(/C=C/C(=O)c2c(OC)cc(OC)cc2OCC=C(C)C)c1
IC50 (HCT-116 [1]): 7.7 µM

Compound: COc1cc(OC)c(C(=O)/C=C/c2cccc(OC)c2OC)c(OCC=C(C)C)c1
growth inhibition (GI) (Saccharomyces cerevisiae [5]): Non-Toxic
inhibition [6]: Active
growth inhibition (GI) (Saccharomyces cerevisiae [7]): Non-Toxic
growth inhibition (GI) (Saccharomyces cerevisiae [8]): Non-Toxic
IC50 (HCT-116 [1]): 11.7 µM

Compound: COc1ccc(/C=C/C(=O)c2c(O)cc(OC)cc2OC)cc1 [FLAVOKAWAIN A]
growth inhibition (GI) (Saccharomyces cerevisiae [5]): Non-Toxic
inhibition [6]: Active
growth inhibition (GI) (Saccharomyces cerevisiae [7]): Non-Toxic
growth inhibition (GI) (Saccharomyces cerevisiae [8]): Non-Toxic
IC50 (HCT-116 [1]): 10.6 µM

Compound: COc1cc(OC)c(C(=O)/C=C/c2ccc(F)cc2)c(OCC=C(C)C)c1
IC50 (HCT-116 [1]): 3.2 µM

Compound: COc1cc(OC)c(C(=O)/C=C/c2cc(OC)c(OC)c(OC)c2)c(OCC=C(C)C)c1CC=C(C)C
IC50 (HCT-116 [1]): 2.9 µM

Compound: COc1cc(OCC=C(C)C)c(C(=O)/C=C/c2cc(OC)c(OC)c(OC)c2)c(OC)c1CC=C(C)C
IC50 (HCT-116 [1]): 4.2 µM

Compound: COc1cc(OC)c(C(=O)/C=C/c2ccc(OC)c(OC)c2)c(OCC=C(C)C)c1
IC50 (HCT-116 [1]): 5.7 µM

Compound: COc1cccc(/C=C/C(=O)c2c(O)cc(OC)cc2OC)c1
IC50 (HCT-116 [1]): 3.1 µM

Compound: COc1cc(O)c(C(=O)/C=C/c2cccc(OC)c2OC)c(OC)c1CC=C(C)C
growth inhibition (GI) (Saccharomyces cerevisiae [5]): Non-Toxic
inhibition [6]: Active
growth inhibition (GI) (Saccharomyces cerevisiae [7]): Non-Toxic
growth inhibition (GI) (Saccharomyces cerevisiae [8]): Non-Toxic
IC50 (HCT-116 [1]): 29.5 µM

More lines, in order of falling IC50 (HCT-116 [1]), values ahead:

inhibition [6]: Active
IC50 (HCT-116 [1]): 50 µM
Compound: COc1ccc(/C=C/C(=O)c2c(O)cc(OC)cc2OC)c(OC)c1
growth inhibition (GI) (Saccharomyces cerevisiae [5]): Non-Toxic
growth inhibition (GI) (Saccharomyces cerevisiae [7]): Non-Toxic
growth inhibition (GI) (Saccharomyces cerevisiae [8]): Non-Toxic

IC50 (HCT-116 [1]): 27.6 µM
Compound: COc1cc(O)c(C(=O)/C=C/c2ccc(OC)c(OC)c2)c(OC)c1

IC50 (HCT-116 [1]): 24.5 µM
Compound: COc1cc(OC)c(C(=O)/C=C/c2cc(Cl)cc(Cl)c2)c(OCC=C(C)C)c1

IC50 (HCT-116 [1]): 15.3 µM
Compound: COc1cccc(/C=C/C(=O)c2c(O)c(CC=C(C)C)c(OC)c(CC=C(C)C)c2OC)c1OC

IC50 (HCT-116 [1]): 14 µM
Compound: COc1cc(O)c(C(=O)/C=C/c2ccc(Br)cc2)c(OC)c1

IC50 (HCT-116 [1]): 7.6 µM
Compound: COc1ccc(/C=C/C(=O)c2c(OC)cc(OC)cc2OCC=C(C)C)cc1

IC50 (HCT-116 [1]): 7.4 µM
Compound: COc1ccc(/C=C/C(=O)c2c(OCC=C(C)C)cc(OC)c(CC=C(C)C)c2OC)cc1OC

IC50 (HCT-116 [1]): 4.4 µM
Compound: COc1cc(O)c(C(=O)/C=C/c2ccc(F)cc2)c(OC)c1

IC50 (HCT-116 [1]): 3.5 µM
Compound: COc1cc(/C=C/C(=O)c2c(OC)cc(OC)cc2OCC=C(C)C)cc(OC)c1

IC50 (HCT-116 [1]): 3.5 µM
Compound: COc1cc(O)c(C(=O)/C=C/c2cccc(OC)c2OC)c(OC)c1

IC50 (HCT-116 [1]): 2.7 µM
Compound: COc1cc(O)c(C(=O)/C=C/c2cccc(Cl)c2Cl)c(OC)c1

IC50 (HepG2): 3.6 µM
IC50 (MCF7): 2800 nM
inhibition [9]: Active
inhibition [6]: Active
inhibition [12]: Active
inhibition [13]: Active
IC50 (A-375): 1600 nM
inhibition [17]: Active
IC50 (HCT-116 [18]): 170 nM
inhibition [20]: Active
inhibition [21]: Active
IC50 (HCT-116 [1]): 2.1 µM
Compound: COc1cc(OC)c(C(=O)/C=C/c2ccc(Br)cc2)c(OCC=C(C)C)c1
growth inhibition (GI) (Saccharomyces cerevisiae [5]): Non-Toxic
selectivity ratio [10]: 3
Activity (HCT-116 [11]): Active
growth inhibition (GI) (Saccharomyces cerevisiae [7]): Non-Toxic
growth inhibition (GI) (Saccharomyces cerevisiae [8]): Non-Toxic
selectivity ratio [14]: 3
Activity (HCT-116 [15]): Active
selectivity ratio [16]: 3
Activity (HCT-116 [19]): Active
selectivity ratio [22]: 3

IC50 (HCT-116 [1]): 1.9 µM
Compound: COc1cc(O)c(C(=O)/C=C/c2cc(Cl)cc(Cl)c2)c(OC)c1

IC50 (HCT-116 [1]): 1.9 µM
Compound: COc1cc(OC)c(C(=O)/C=C/c2cccc(Cl)c2Cl)c(OCC=C(C)C)c1
